This is an account of results in patent EP4644383A1 (Jiangsu Yahong Meditech Co., Ltd., priority 2022, dated 2024).

Structures are written as SMILES.

In the first assay the test system is RT112 cells (bladder cancer cells). In words: Inhibition of proliferation activity of RT112 cells (CellTiter-Glo). The assay is classed as cell-based. Particulars: Homo sapiens, RT-112, 72 h, read-out: IC50 (nM) RT112. On the procedure:
The present experiment used CellTiter-Glo® Luminescent Cell Viability Assay (Promega: G7573) kit, which was a homogeneous cell viability detection method and determined the cell viability of cultured cells by quantifying ATP. • ① RT112 cells were cultured in MEM complete medium (Gibco: 51200038) (10% FBS (Gibco: 10091-148)+1% Pen Strep (Gibco: 15140122)+1% NEAA (Gibco: 11140050)) under the condition of 37°C and 5% CO2. • (2) The cells in logarithmic growth phase were harvested and counted using a […]. The trypan blue exclusion method was used to detect cell viability to ensure the cell viability was above 90%. • ③ The cell density was adjusted using MEM complete medium, and then, the cells were seeded into a 96-well cell culture plate at 90 µL/well with a total of 3000 cells. • ④ The 96-well plate with the cells was placed under the condition of 37°C and 5% CO2 to be cultured for 24 hours. • ⑤ 24 hours later, a 10-fold drug solution was prepared starting from a maximum drug concentration of 10 µM and 4-fold serially diluted into10 concentrations. Then, 10 µL of each of the serially diluted compounds was transferred to the corresponding experimental wells of a 96-well cell plate, with two replicates for each drug concentration. • ⑥ The 96-well plate with the cells that had been treated with the drugs was placed under the condition of 37°C and 5% CO2 to be further cultured for 72 hours, and then analyzed by CTG. • ⑦ The CTG reagent was melted and the cell plate was equilibrated to room temperature for 30 minutes. • ⑧ 50 µL of the CTG solution was added to each well. • ⑨ The cell plate was shaken on an orbital shaker for 5 minutes to lyse the cells. • ⑩ The cell plate was placed at room temperature for 20 minutes to stabilize the luminescence signal. The luminescence values were read to collect the data. • ⑪ The data were analyzed using XLFit excel plugin version 5.5.0.5, and fitted with non-linear S-curve regression to obtain the dose-response curves and thus calculate the IC50 values. Y = Bottom + (Top-Bottom)/((1+(IC50/X))^(∧) HillSlope [formula]
"Top" refers to the maximum response, "Bottom" refers to the minimum response, and "HillSlope" refers to the slope of the curve.
"Max" represents the average value of the cell+DMSO control, and "Min" represents the average value of the medium control+DMSO.
For orientation: In ATP-based viability assays light output follows the ATP content of the culture.
What is called IC50 is the concentration that inhibits the measured activity by half. `C[C@@H](Oc1ccc2[nH]nc(-c3ccc(S(C)(=N)=O)nc3)c2c1)c1c(Cl)cncc1Cl` (stereo partly drawn) [Comparative Example 85, (5-(5-((R)-1-(3,5-dichloropyridin-4-yl)ethoxy)-1H-indazol-3-yl)pyridin-2-yl)(imino)(methyl)-sulfanone, reference compound]: the IC50 was 58.8 nM.

The assay is the same for the next values; noted with them: Homo sapiens, RT-112; RT112 cells, 72 hours, CTG; read-out: IC50 (nM) RT112.
For `C[C@@H](Oc1cc(F)c2[nH]nc(-c3cnn(CCN4CCOCC4)c3)c2c1)c1c(Cl)cncc1Cl` [Example 12, (R)-4-(2-(4-(5-(1-(3,5-dichloropyridin-4-yl)ethoxy)-7-fluoro-1H-indazol-3-yl)-1H-pyrazol-1-yl)ethyl)morph oline], the IC50 came out at 43.1 nM.
Same read-out and setting: for `C[C@@H](Oc1ccc2[nH]nc(-c3cnn(C)c3)c2n1)c1c(Cl)cncc1Cl` [Example 29, (R)-5-(1-(3,5-dichloropyridin-4-yl)ethoxy)-3-(1-methyl-1H-pyrazol-4-yl)-1H-pyrazolo[4,3-b]pyridine] the value was 3.6 nM; for `C[C@@H](Oc1ccc2[nH]nc(-c3cnn(CCN4CCN(C)C(=O)C4)c3)c2n1)c1c(Cl)cncc1Cl` [Example 54, (R)-4-(2-(4-(5-(1-(3,5-dichloropyridin-4-yl)ethoxy)-1H-pyrazolo[4,3-b]pyridin-3-yl)-1H-pyrazol-1-yl)ethyl)-1-methylpiperazin-2-one], 14 nM; for `C[C@@H](Oc1ccc2[nH]nc(-c3cnn(CCN4CCS(=O)(=O)CC4)c3)c2n1)c1c(Cl)cncc1Cl` [Example 55, (R)-4-(2-(4-(5-(1-(3,5-dichloropyridin-4-yl)ethoxy)-1H-pyrazolo[4,3-b]pyridin-3-yl)-1H-pyrazol-1-yl)ethyl)thiomorph oline 1,1-dioxide], 15.9 nM.
The same measure, in the same setting: then `CC(Oc1ccc2[nH]nc(-c3cnn(C)c3)c2c1)c1cccc2ncccc12` (stereo not shown) [Example 88, 5-(1-((3-(1-methyl-1H-pyrazol-4-yl)-1H-indazol-5-yl)oxy)ethyl)quin oline], with 167 nM; and `CC(Oc1ccc2[nH]nc(-c3cnn(C)c3)c2c1)c1cccc2nccnc12` (stereo not shown) [Example 92, 5-(1-((3-(1-methyl-1H-pyrazol-4-yl)-1H-indazol-5-yl)oxy)ethyl)quin oxaline], with 24.3 nM; and `Cc1ccc2ncccc2c1C(C)Oc1ccc2[nH]nc(-c3cnn(C)c3)c2c1` (stereo not shown) [Example 95, 6-methyl-5-(1-((3-(1-methyl-1H-pyrazol-4-yl)-1H-indazol-5-yl)oxy)ethyl)quinolinee], with 23.4 nM.
Regarding `CC(Oc1ccc2[nH]nc(-c3cnn(C)c3)c2c1)c1cccn2ncnc12` (stereo not shown) [Example 101, 8-(1-((3-(1-methyl-1H-pyrazol-4-yl)-1H-indazol-5-yl)oxy)ethyl)-[1,2,4]triazolo[1,5-a]pyridine], the IC50 amounted to 85 nM.
On the same count and under the same terms, for `CC(Oc1ccc2[nH]nc(-c3cnn(C)c3)c2c1)c1c(C(F)F)ccc2ncccc12` (stereo not shown) [Example 127, 6-(difluoromethyl)-5-(1-((3-(1-methyl-1H-pyrazol-4-yl)-1H-indazol-5-yl)oxy)ethyl)quinoline] the value was 25.5 nM.
The same measure, in the same setting: then `CC(Oc1ccc2[nH]nc(-c3cnn(C)c3)c2c1)c1c(CF)ccc2ncccc12` (stereo not shown) [Example 130, 6-(fluoromethyl)-5-(1-((3-(1-methyl-1H-pyrazol-4-yl)-1H-indazol-5-yl)oxy)ethyl)q uinoline], with 37.9 nM.
On the same count and under the same terms, then `CC(Oc1ccc2[nH]nc(-c3cnn(C)c3)c2c1)c1cc(Cl)cc2nccnc12` (stereo not shown) [Example 136, 7-chloro-5-(1-((3-(1-methyl-1H-pyrazol-4-yl)-1H-indazol-5-yl)oxy)ethyl)qu inoxaline], with 47.5 nM.
For `Cc1cc2nccnc2c(C(C)Oc2ccc3[nH]nc(-c4cnn(C)c4)c3c2)n1` (stereo not shown) [Example 183, 7-methyl-5-(1-((3-(1-methyl-1H-pyrazol-4-yl)-1H-indazol-5-yl)oxy)ethyl)pyridino [3,4-b]pyrazine], the IC50 stood at 9.7 nM.
`COCC(=O)N1CC(n2cc(-c3n[nH]c4ccc(OC(C)c5cccc6nccnc56)cc34)cn2)C1` (stereo not shown) [Example 188, 2-methoxy-1-(3-(4-(5-(1-(quinoxalin-5-yl)ethoxy)-1H-indazol-3-yl)-1H-pyrazol-1-yl)azetidin-1-yl)ethan-1-one]: the IC50 was found to be 10.7 nM.
The same measure, in the same setting: for `CC(Oc1ccc2[nH]nc(-c3cnn(C4CN(C(=O)C(C)(C)O)C4)c3)c2c1)c1cccc2nccnc12` (stereo not shown) [Example 190, 2-hydroxy-2-methyl-1-(3-(4-(5-(1-(quinoxalin-5-yl)ethoxy)-1H-indazol-3-yl)-1H-pyrazol-1-yl)azetidin-1-yl)propan-1-one] the value was 18.6 nM; for `CC(=O)N1CC(n2cc(-c3n[nH]c4ccc(OC(C)c5cccc6nccnc56)cc34)cn2)C1` (stereo not shown) [Example 218, 1-(3-(4-(5-(1-(quinoxalin-5-yl)ethoxy)-1H-indazol-3-yl)-1H-pyrazol-1-yl)azetidin-1-yl)ethan-1-one], 16.7 nM.
For the molecule `CC(Oc1cc2c(-c3cnn(C)c3)n[nH]c2cc1F)c1cc(Cl)cc2nccnc12` (stereo not shown) [Example 227, 7-chloro-5-(1-((6-fluoro-3-(1-methyl-1H-pyrazol-4-yl)-1H-indazol-5-yl)oxy)ethyl)qu inoxaline], the IC50 amounted to 34.5 nM.
As to `CC(Oc1ccc2[nH]nc(-c3cnn(C)c3)c2c1)c1nc(C(F)F)cc2nccnc12` (stereo not shown) [Example 236, 7-(difluoromethyl)-5-(1-((3-(1-methyl-1H-pyrazol-4-yl)-1H-indazol-5-yl)oxy)ethyl)pyridino[3,4-b]pyrazine], the IC50 was found to be 15.5 nM.
The same measure, in the same setting: then `[2H]C([2H])([2H])c1cc2nccnc2c(C(C)Oc2ccc3[nH]nc(-c4cnn(C)c4)c3c2)n1` (stereo not shown) [Example 241], with 13.5 nM.
